According to article PMC12447640, “Design, synthesis, and biological assessment of a novel series of coumarin-tethered thiazole derivatives as potential antibacterial agents” (Frontiers in Chemistry, 2025):
pIC50: −log10 of the molar value.

Molecular target: T1, DNA gyrase B (E. coli DNA gyrase, supercoiling) (Escherichia coli, UniProt P0AES6)
T1 construct: gene gyrB; with DNA gyrase subunit A (GyrA)
Assay: E. coli DNA gyrase supercoiling microplate assay kit (Inspiralis)
Format: biochemical

## CC(=NNc1nc(C)c(N=Nc2ccc(F)cc2)s1)c1cc2ccc(O)cc2oc1=O [6c, 3-(-1-{2-[5-((4-fluorophenyl)diazenyl)-4-methylthiazol-2-yl]hydrazono}ethyl)-7-hydroxy-2H-chromen-2-one]
  pIC50: 4.03

## CC(=NNc1nc(C)c(N=Nc2ccccc2)s1)c1cc2ccc(O)cc2oc1=O [6a, 7-Hydroxy-3-(-1-{2-[4-methyl-5-(phenyldiazenyl)thiazol-2-yl]hydrazono}ethyl)-2H-chromen-2-one]
  pIC50: 4.25
